According to ChEMBL document CHEMBL1201862, “PubChem BioAssay data set” (2004):
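Cultured in 96-well plates, cells were exposed to test compound for 48 hours across five concentrations. GI50 is the concentration that inhibits growth by half.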 The source made the active and inactive calls. Cut-off read from the data, not from the text of the source: active = GI50 up to about 1.1 µM and inactive = higher.

Assays:
Assay in all cases: NCI tumour cell line growth inhibition, 48 h
[1] = test system: DMS-114
[2] = test system: DMS-273
[3] = test system: KM-20L2
[4] = test system: SNB-78
[5] = test system: LXFL 529
[6] = test system: T47D
[7] = test system: HOP-18
[8] = test system: XF498
[9] = test system: RXF 631

Structure (SMILES) | GI50 [3] | GI50 [5] | GI50 [6] | other results
Cc1[nH]c2ccccc2c1C1Cc2ccccc2N1C(=O)/C=C/C=C/c1ccccc1 (stereo unspecified) | > 100 µM (inactive) | > 100 µM (inactive) | – | GI50 [1]: > 100 µM (inactive); GI50 [2]: > 100 µM (inactive); GI50 [4]: > 100 µM (inactive)
CCC1c2[nH]c3ccccc3c2C[C@H]2C(=O)NC(Cc3ccccc3)C(=O)N12 (stereo partly specified) | – | – | 22 µM (inactive) | –
CC[C@@]1(C)CCC2c3ccc(O)cc3CC[C@H]2C1C (stereo partly specified) | – | – | 18.1 µM (inactive) | –
CCOC(=O)C1C(=O)CC(C)(O)C(C(=O)OCC)C1c1ccc(N(C)C)cc1 (stereo unspecified) | – | – | > 100 µM (inactive) | –
CC(CC(=O)Nc1ccc(NC(=O)CC(C)/N=N\C(N)=O)cc1)/N=N\C(N)=O (stereo unspecified) | > 100 µM (inactive) | > 100 µM (inactive) | – | GI50 [1]: 15.6 µM (inactive); GI50 [7]: > 100 µM (inactive); GI50 [2]: 41.6 µM (inactive); GI50 [8]: > 100 µM (inactive)
Nc1ncnc2ccc(Sc3ccc4ncnc(N)c4c3)cc12 | – | – | > 100 µM (inactive) | –
N/C1=C/C(=O)NC(=O)c2c(c3ccccc3oc2=O)C1 | – | – | > 100 µM (inactive) | –
CCc1cc2c(oc3cc(C)ccc32)c(=O)n1C | – | – | > 10 µM (inactive) | –
NC(=O)CN1CC(C2=C(O)CN(CC(N)=O)C2=O)=CC1=O | – | – | > 100 µM (inactive) | –
N#C/C(=C\c1cn(Cc2ccccc2)c2ccccc12)c1nn(-c2ccccc2)c(N)c1C#N | – | – | 1.33 µM (inactive) | –
O=C(CC1(O)C(=O)Nc2ccc(Br)cc21)c1ccc(Cl)cc1Cl (stereo unspecified) | > 100 µM (inactive) | 32.4 µM (inactive) | – | GI50 [1]: 20.9 µM (inactive); GI50 [4]: 37.8 µM (inactive); GI50 [9]: 43.9 µM (inactive)
COc1ccc2c(c1)CC[C@@H]1C2CC[C@]2(C)C(=N\O)/C(=N/O)CC12 (stereo partly specified) | 6.21 µM (inactive) | 12.8 µM (inactive) | – | GI50 [7]: 15.7 µM (inactive); GI50 [2]: 12 µM (inactive); GI50 [4]: 17 µM (inactive); GI50 [8]: 14.5 µM (inactive)
CC(=O)Nc1ccc2c(c1)[nH]c(=O)c1cc(Cl)ccc12 | – | – | 57.9 µM (inactive) | –
CCC1(O)C(=O)OCc2c1cc1n(c2=O)Cc2cc3cc(N)ccc3nc2-1 (stereo unspecified) | – | – | < 0.01 µM (active) | –
O=C(CC(=O)C1CCOC1=O)C(=O)Nc1ccc(Cl)cc1 (stereo unspecified) | > 100 µM (inactive) | > 100 µM (inactive) | – | GI50 [1]: > 100 µM (inactive); GI50 [2]: > 100 µM (inactive); GI50 [4]: > 100 µM (inactive); GI50 [9]: > 100 µM (inactive)
CS(=O)(=O)CCC1CCC(=O)O1 (stereo unspecified) | – | – | > 100 µM (inactive) | –
COc1ccc2c(O)c(S(=O)(=O)c3ccc(C)cc3)c(=O)oc2c1OC | – | – | > 100 µM (inactive) | –
Cc1cc(N(CCC#N)CCC#N)ccc1/C=C(\NC(=O)/C=C/c1ccccc1)C(=O)N=[N+]=[N-] | > 100 µM (inactive) | > 100 µM (inactive) | – | GI50 [1]: > 100 µM (inactive); GI50 [2]: > 100 µM (inactive); GI50 [4]: 44.4 µM (inactive); GI50 [8]: 28.5 µM (inactive)
